The results in this text go back to patent US3969522A, “Diaryl-pyridyl-imidazole methanes for treating mycotic infections” (Bayer Aktiengesellschaft, priority 1972, dated 1976).

SMILES strings stand for the structures. In brackets after ≈: the same amount, converted by molar mass. Structures can show the parent of a compound that is named as a salt.

What all share (format): cell-based
Experiment [1] relates to Trichophyton mentagrophytes. The experiment is described as follows: series dilution test in vitro, Trichophyton mentagrophytes. The note with it: Sabourauds' milieu d'epreuve, 28° C, 24 to 96 hours; for MIC: read-out: Minimum Inhibitory Concentration. The method, then:
(§1) A. Determination of the antimycotic action spectrum in vitro by means of the series dilution test
(§2) Sabourauds' milieu d'epreuve is used as the nutrient substrate for dermatophytes and Aspergilli, and meat-broth-glucose-bouillon is used as the nutrient substrate for blastomyces. The incubation temperature is 28° C and the incubation time is 24 to 96 hours.

The subject of the next experiment is Aspergillis niger. The experiment is described as follows: series dilution test in vitro, Aspergillus niger. As to conditions: Sabourauds' milieu d'epreuve, 28° C, 24 to 96 hours; for MIC: Aspergillus niger, read-out: Minimum Inhibitory Concentration. How it is done: as §1, §2
The test system of a further experiment is Penicillium commune. Put plainly: series dilution test in vitro, Penicillium commune. The note with it: 28° C, 24 to 96 hours; for MIC: read-out: Minimum Inhibitory Concentration. The method, then: as §1, §2
Another experiment has as its system Candida albicans. Put plainly: series dilution test in vitro, Candida albicans. The note with it: 28° C, 24 to 96 hours; for MIC: read-out: Minimum Inhibitory Concentration. The method, then: as §1, §2

Turning to `Fc1ccc(C(c2ccccc2)(c2ccccn2)n2ccnc2)cc1` (stereo not drawn) [Known Compound 1, 1-(4-fluorophenyl-phenyl-2-pyridyl)-methylimidazole, reference compound], the “Minimum Inhibitory Concentration” value was more than 2 µg/mL in experiment [1], 2 µg/mL with Aspergillis niger and more than 2 µg/mL in the experiment on Penicillium commune. Besides, the MIC is less than 4 µg/mL in experiment [1], 4 µg/mL (≈ 12.1 µM) with Aspergillis niger, less than 4 µg/mL in the experiment with Penicillium commune and 4 µg/mL (≈ 12.1 µM) in the experiment on Candida albicans.
In the case of `FC(F)(F)c1cccc(C(c2ccccc2)(c2ccccn2)n2ccnc2)c1` (stereo not drawn) [Known Compound 2, 1-(3-trifluoromethylphenyl-phenyl-2-pyridyl)-methylimidazole, reference compound], the “Minimum Inhibitory Concentration” value (in experiment [1]; with Aspergillis niger; with Penicillium commune) was more than 2 µg/mL throughout. The MIC in experiment [1] was less than 4 µg/mL; with Aspergillis niger it was less than 4 µg/mL; in the experiment on Penicillium commune it was less than 4 µg/mL; in the experiment on Candida albicans, 4 µg/mL (≈ 10.5 µM).
Turning to `Cc1cccc(C(c2ccccc2)(c2ccncc2)n2ccnc2)c1C` (stereo not drawn) [Example 9, 1-(2,3-dimethylphenyl-phenyl-4-pyridyl)-methyl-imidazole], the MIC in experiment [1] was determined as 0.5 µg/mL (≈ 1.47 µM); in the experiment with Aspergillis niger it was 1 µg/mL (≈ 2.95 µM); with Penicillium commune, 4 µg/mL (≈ 11.8 µM); in the experiment with Candida albicans it was 1 µg/mL (≈ 2.95 µM).
With `Cc1ccc(C(c2ccccc2)(c2ccncc2)n2ccnc2)cc1C` (stereo not drawn) [Example 5, 1-(3,4-dimethylphenyl-phenyl-4-pyridyl)-methyl-imidazole], the “Minimum Inhibitory Concentration” value turned out to be 0.5 µg/mL in experiment [1], 1 µg/mL in the experiment on Aspergillis niger and 10 µg/mL in the experiment on Penicillium commune. Besides, the MIC in the experiment with Candida albicans was determined as 1 µg/mL (≈ 2.95 µM).
`Cc1cccc(C(c2ccccc2)(c2ccccn2)n2ccnc2)c1C` (stereo not drawn) [Example 8, 1-(2,3-dimethylphenyl-phenyl-2-pyridyl)-methyl-imidazole 1,5-naphthalenedisulphonate]: the “Minimum Inhibitory Concentration” value in experiment [1] turned out to be 1 µg/mL; in the experiment on Aspergillis niger it was 1 µg/mL; in the experiment with Penicillium commune, 4 µg/mL; in the experiment with Candida albicans it was 1 µg/mL.
`Cc1ccc(C)c(C(c2ccccc2)(c2ccncc2)n2ccnc2)c1` (stereo not drawn) [Example 6, 1-(2,5-dimethylphenyl-phenyl-4-pyridyl)-methyl-imidazole]: the MIC in experiment [1] was 0.5 µg/mL (≈ 1.47 µM); in the experiment on Aspergillis niger, 40 µg/mL (≈ 118 µM); in the experiment on Penicillium commune, 40 µg/mL (≈ 118 µM); in the experiment on Candida albicans it was 4 µg/mL (≈ 11.8 µM).
As for `Cc1cccc(C(c2ccccc2)(c2ccccn2)n2ccnc2)c1C` (stereo not drawn) [Example 7, 1-(2,3-dimethylphenyl-phenyl-2-pyridyl)-methyl-imidazole], the entries for the “Minimum Inhibitory Concentration” value (in experiment [1]; with Aspergillis niger; in the experiment with Penicillium commune) were 0.05 µg/mL, 0.1 µg/mL and 1 µg/mL, respectively. Moreover, in the experiment with Candida albicans, the MIC came out at 1 µg/mL (≈ 2.95 µM).
With `Cc1ccc(C(c2ccccc2)(c2ccncc2)n2ccnc2)cc1C` (stereo not drawn) [Example 10, 1-(3,4-dimethylphenyl-phenyl-4-pyridyl)-methyl-imidazole 1,5-naphthalenedisulphonate], the “Minimum Inhibitory Concentration” value amounted to 10 µg/mL in experiment [1], 4 µg/mL with Aspergillis niger, 4 µg/mL with Penicillium commune and 1 µg/mL in the experiment on Candida albicans.
Regarding `Cc1cccc(C)c1C(c1ccccc1)(c1ccccn1)n1ccnc1` (stereo not drawn) [Example 3, 1-(2,6-dimethylphenyl-phenyl-2-pyridyl)-methyl-imidazole hydrochloride], the MIC in experiment [1] amounted to 0.5 µg/mL; with Aspergillis niger, 4 µg/mL; in the experiment with Penicillium commune, 10 µg/mL; with Candida albicans, 1 µg/mL.
For `Cc1ccc(C(c2ccccc2)(c2ccccn2)n2ccnc2)c(C)c1` (stereo not drawn) [Example 2, 1-(2,4-dimethylphenyl-phenyl-2-pyridyl)-methyl-imidazole], the MIC in experiment [1] was found to be 0.5 µg/mL (≈ 1.47 µM); in the experiment with Aspergillis niger, 4 µg/mL (≈ 11.8 µM); with Penicillium commune it was 4 µg/mL (≈ 11.8 µM); in the experiment on Candida albicans it was 10 µg/mL (≈ 29.5 µM).
In the case of `Cc1ccc(C(c2ccccc2)(c2ccncc2)n2ccnc2)c(C)c1` (stereo not drawn) [Example 4, 1-(2,4-dimethylphenyl-phenyl-4-pyridyl)-methyl-imidazole], the MIC in experiment [1] came to 0.5 µg/mL (≈ 1.47 µM); with Aspergillis niger, 4 µg/mL (≈ 11.8 µM); in the experiment on Penicillium commune, 10 µg/mL (≈ 29.5 µM); in the experiment on Candida albicans it was 4 µg/mL (≈ 11.8 µM).
On to `Cc1ccc(C(c2ccccc2)(c2ccccn2)n2ccnc2)cc1C` (stereo not drawn) [Example 1, 1-(3,4-dimethylphenyl-phenyl-2-pyridyl)-methyl-imidazole], for which the MIC was 0.5 µg/mL (≈ 1.47 µM) in experiment [1], less than 1 µg/mL with Aspergillis niger, 4 µg/mL (≈ 11.8 µM) in the experiment with Penicillium commune and 1 µg/mL (≈ 2.95 µM) in the experiment on Candida albicans.
